From US20150315188A1, “COMPOUNDS AND METHODS FOR TREATMENT OF HYPERTENSION” (MEDIVATION TECHNOLOGIES, INC., priority 2012, published 2015)

Assays:
[1] = target: T1, Human adrenergic α2B receptor (Homo sapiens, UniProt P18089); experiment: β-Arrestin GPCR functional assay, adrenergic α2B (Protocol B); type: cell-based; conditions: β-arrestin, antagonist vs nor-epinephrine EC80; read-out: IC50 Adrenergic α2B
T1 sequence (P18089 1-450): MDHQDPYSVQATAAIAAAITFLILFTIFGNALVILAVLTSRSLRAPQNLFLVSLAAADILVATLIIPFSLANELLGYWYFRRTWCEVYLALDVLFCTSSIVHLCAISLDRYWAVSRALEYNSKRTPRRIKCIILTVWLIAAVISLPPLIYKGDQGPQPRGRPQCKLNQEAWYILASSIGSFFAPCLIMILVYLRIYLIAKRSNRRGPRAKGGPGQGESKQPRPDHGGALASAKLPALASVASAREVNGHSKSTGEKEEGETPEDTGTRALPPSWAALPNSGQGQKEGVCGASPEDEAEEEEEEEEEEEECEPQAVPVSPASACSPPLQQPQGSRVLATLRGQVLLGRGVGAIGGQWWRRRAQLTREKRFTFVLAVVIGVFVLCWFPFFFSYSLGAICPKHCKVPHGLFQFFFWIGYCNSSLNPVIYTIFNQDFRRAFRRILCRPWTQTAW
Protocol: To evaluate the activity of compounds in β-Arrestin GPCR functional assays, recombinant CHO cell line (DiscoveRX), over expressed with human adrenergic α2B receptor were used. The experiment was done with kit of DiscoveRX as per recommended protocol of the supplier. Cells were harvested from culture flask using cell dissociation solution (CDS) and plated at a density of 12,000 cells/well in CP reagent (supplied with the kit) in a half area 96-well white polystyrene plate. After 24 h incubation at 37° C., compounds at various concentrations in 1% (final) DMSO were charged to the cells for 30 min at 37° C. Active nor-epinephrine (-NE) at its EC80 concentrations (50 nM) were then added to the cells and incubated for another 90 min at 37° C. Detection mix was prepared by mixing of Path Hunter cell assay buffer, Emerald II solution and Galactone star solution in a ratio of 19:5:1 and incubated with the cells for 60 min at RT in the dark. The reading was taken in Envision at luminescence mode. Biochemical assay results are presented as the percent Inhibition in Table B2a, or IC50 values in Table B2b.

[2] = target: T1, Human adrenergic α2B receptor; experiment: Radioligand binding, adrenergic α2B (Protocol Group B); design: purchased Milipore (Millipore); conditions: Protocol Group B; for Percentage inhibition of ligand binding, Adrenergic α2B (10 nM) / inhibition at 0.01 µM: 10 nM compound; for Percentage inhibition of ligand binding, Adrenergic α2B (10 nM): 0.01 µM; for Percentage inhibition of ligand binding, Adrenergic α2B (30 nM) / inhibition at 0.03 µM: 30 nM compound; for Percentage inhibition of ligand binding, Adrenergic α2B (30 nM): 0.03 µM; for Ki: estimated Ki, read-out: Ki α2B; for inhibition at 0.01 µM: read-out: Percentage inhibition of ligand binding, Adrenergic α2B (10 nM); for inhibition at 0.03 µM: read-out: Percentage inhibition of ligand binding, Adrenergic α2B (30 nM); for inhibition at 0.1 µM: 0.1 μM compound, read-out: Percentage inhibition of ligand binding, Adrenergic α2B (0.1 μM)
Procedure, shortened: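 Recombinant human α2B receptor membranes incubated with compounds in 50 mM Tris-HCl pH 7.4, 5 mM MgCl2, 1 mM CaCl2, 0.2% BSA, 1% DMSO vehicle. Non-specific binding defined with 10 μM rauwolscine. Values are percent inhibition of specific binding or estimated Ki.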

[3] = target: T2, Human adrenergic α2A receptor (Homo sapiens, UniProt P08913); experiment: Radioligand binding, adrenergic α2A (Protocol Group B); design: purchased Milipore (Millipore); conditions: Protocol Group B; for Percentage inhibition of ligand binding, Adrenergic α2A (0.1 μM) / inhibition at 0.1 µM: 0.1 μM compound; for Percentage inhibition of ligand binding, Adrenergic α2A (0.3 μM) / inhibition at 0.3 µM: 0.3 μM compound; for inhibition at 0.1 µM: read-out: Percentage inhibition of ligand binding, Adrenergic α2A (0.1 μM); for inhibition at 0.3 µM: read-out: Percentage inhibition of ligand binding, Adrenergic α2A (0.3 μM); for Ki: estimated Ki
T2 sequence (P08913 1-465): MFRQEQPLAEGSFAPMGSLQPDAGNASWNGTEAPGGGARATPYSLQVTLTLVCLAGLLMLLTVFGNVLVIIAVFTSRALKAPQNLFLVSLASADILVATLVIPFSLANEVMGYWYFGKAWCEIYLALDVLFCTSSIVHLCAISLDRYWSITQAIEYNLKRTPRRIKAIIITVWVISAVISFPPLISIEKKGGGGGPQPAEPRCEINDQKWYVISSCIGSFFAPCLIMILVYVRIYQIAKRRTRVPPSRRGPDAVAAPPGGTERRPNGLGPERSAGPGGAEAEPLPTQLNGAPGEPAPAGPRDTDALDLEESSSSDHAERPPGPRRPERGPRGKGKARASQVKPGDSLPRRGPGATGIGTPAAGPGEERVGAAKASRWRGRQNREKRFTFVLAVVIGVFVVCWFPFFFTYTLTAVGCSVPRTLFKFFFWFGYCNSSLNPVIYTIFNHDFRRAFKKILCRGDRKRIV
Procedure, shortened: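 Membranes from recombinant cells expressing the receptor, in 50 mM Tris-HCl pH 7.4 with 5 mM MgCl2, 1 mM CaCl2, 0.2% BSA; compounds incubated with 2 nM [^3H]MK-912 for 60 min at 25° C. Nonspecific binding defined by 10 μM rauwolscine; filtration, counting; percent inhibition of specific binding, or estimated Ki.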

[4] = target: T3, Human adrenergic α1B receptor (Homo sapiens, UniProt P35368); experiment: Radioligand binding, adrenergic α1B (Protocol Group B); design: purchased Milipore (Millipore); conditions: Protocol Group B; for Percentage inhibition of ligand binding, Adrenergic α1B (0.1 μM) / inhibition at 0.1 µM: 0.1 μM compound; for Percentage inhibition of ligand binding, Adrenergic α1B (0.3 μM) / inhibition at 0.3 µM: 0.3 μM compound; for inhibition at 0.1 µM: read-out: Percentage inhibition of ligand binding, Adrenergic α1B (0.1 μM); for inhibition at 0.3 µM: read-out: Percentage inhibition of ligand binding, Adrenergic α1B (0.3 μM); for Ki: estimated Ki
T3 sequence (P35368 1-520): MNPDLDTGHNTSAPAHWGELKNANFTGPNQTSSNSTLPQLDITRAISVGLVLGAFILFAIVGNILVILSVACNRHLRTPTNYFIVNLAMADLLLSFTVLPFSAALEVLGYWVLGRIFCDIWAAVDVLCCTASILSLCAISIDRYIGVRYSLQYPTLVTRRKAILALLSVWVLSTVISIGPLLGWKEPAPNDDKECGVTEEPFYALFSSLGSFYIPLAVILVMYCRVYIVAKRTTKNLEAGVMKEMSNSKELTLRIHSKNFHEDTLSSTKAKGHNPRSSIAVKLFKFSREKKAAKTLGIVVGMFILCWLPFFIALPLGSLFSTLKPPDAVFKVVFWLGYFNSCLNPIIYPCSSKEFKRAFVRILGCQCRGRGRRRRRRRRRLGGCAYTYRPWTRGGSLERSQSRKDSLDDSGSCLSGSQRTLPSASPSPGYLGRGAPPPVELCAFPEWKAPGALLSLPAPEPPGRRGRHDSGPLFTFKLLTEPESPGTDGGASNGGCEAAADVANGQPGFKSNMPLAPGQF
Procedure, shortened: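 Recombinant human α1B membranes incubated with test compound and 0.3 nM [3H]prazosin, 60 min at 25 °C, in 50 mM Tris-HCl pH 7.4, 10 mM MgCl2, 1 mM EDTA; nonspecific binding with 10 μM prazosin. Filter-bound radioactivity counted; values are % inhibition of specific binding or estimated Ki.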

IC50 [1] [nM]	Percentage inhibition of ligand binding, Adrenergic α2B (10 nM) [2] [%]	Percentage inhibition of ligand binding, Adrenergic α2B (30 nM) [2] [%]	Ki [2] [nM]	Percentage inhibition of ligand binding, Adrenergic α2A (0.1 μM) [3] [%]	Percentage inhibition of ligand binding, Adrenergic α2A (0.3 μM) [3] [%]	Percentage inhibition of ligand binding, Adrenergic α1B (0.1 μM) [4] [%]	Percentage inhibition of ligand binding, Adrenergic α1B (0.3 μM) [4] [%]	inhibition at 0.01 µM [2] [%]	inhibition at 0.03 µM [2] [%]	inhibition at 0.1 µM [3] [%]	inhibition at 0.3 µM [3] [%]	inhibition at 0.1 µM [4] [%]	inhibition at 0.3 µM [4] [%]	inhibition at 0.1 µM [2] [%]	Ki [3] [nM]	Ki [4] [nM]	SMILES
68.3	76	96	2.45	45	72	24	63	–	–	–	–	–	–	–	–	–	Cc1cc(F)cc2c3c(n(CC(O)c4ccncc4)c12)CCN1CCCC31 (single isomer, unassigned) [136b]
303	30	63	20.6	19	33	13	27	–	–	–	–	–	–	–	–	–	Cc1ccc2c(c1F)c1c(n2CC(C)(O)c2cccnc2)CCN2CCCC12 (single isomer, unassigned) [87a]
832	–	–	32.6	–	–	–	–	9	42	-12	-4	-9	4	–	–	–	CC(O)(Cn1c2c(c3cc(C(F)(F)F)ccc31)CN1CCCC1C2)c1cccnc1 (single isomer, unassigned) [85a]
396	–	–	7.9	–	–	–	–	28	54	10	37	-1	26	–	–	–	Cc1ccc2c(c1)c1c(n2CC(C)(O)c2cnc3ccccc3c2)CCN(C)C1 (single isomer, unassigned) [32a]
251	–	–	4.6	–	–	–	–	52	80	4	11	3	28	90	5160	379	Cc1ccc2c(c1)c1c(n2CC(O)c2ccncc2)CNC2CCCC12 (single isomer, unassigned) [34c]
261	–	–	4.55	–	–	–	–	51	74	24	30	6	11	–	–	–	Cc1cc(F)cc2c3c(n(CC(C)(O)c4cccnc4)c12)CC1CCCN1C3 (single isomer, unassigned) [76d]
237	–	–	7.16	16	–	15	–	38	72	–	42	–	33	90	291	179	Cc1ccc2c(c1)c1c(n2CC(C)(O)c2cccnc2)CC2CCCN2C1 (single isomer, unassigned) [38b]
166	70	90	2.85	19	44	−1	33	–	–	–	–	–	–	–	–	–	CC(O)(Cn1c2c(c3cc(F)cc(Cl)c31)C1CCCN1CC2)c1ccncc1 (single isomer, unassigned) [88b]
699	–	–	13	–	–	–	–	24	53	-10	9	-5	15	–	–	–	CC(O)(Cn1c2c(c3cc(Cl)cc(F)c31)CN1CCCC1C2)c1ccncc1 (single isomer, unassigned) [86c]
284	37	66	23.8	31	53	16	35	–	–	–	–	–	–	–	–	–	Cc1ccc2c(c1F)c1c(n2CC(C)(O)c2cccnc2)CCN2CCCC12 (single isomer, unassigned) [87b]
45.5	54	78	7.6	24	40	0	22	–	–	–	–	–	–	–	–	–	CC(O)(Cn1c2c(c3cc(F)cc(Cl)c31)C1CCCN1CC2)c1cccnc1 (single isomer, unassigned) [89c]
692	–	–	12.4	–	–	–	–	42	71	8	36	8	14	–	–	–	CC(O)(Cn1c2c(c3cc(Cl)cc(F)c31)CN1CCCC1C2)c1cccnc1 (single isomer, unassigned) [63c]
